According to patent US11603355B2, “Charged ion channel blockers and methods for use” (Nocion Therapeutics, Inc., priority 2019, dated 2023):

Experiments:
NaV1.7 [1] = biological target: T1, NaV1.7 (Homo sapiens, UniProt Q15858); assay: Automated patch clamp (Qube 384), internal block of NaV1.7; format: cell-based; conditions: IC50, compound in internal solution, HEK293 cells, read-out: Nav1.7 Intracellular Inhibition
T1 construct: expressed in transfected cells; host or cells: HEK293 (tetracycline-inducible)
T1 sequence (Q15858 whole entry): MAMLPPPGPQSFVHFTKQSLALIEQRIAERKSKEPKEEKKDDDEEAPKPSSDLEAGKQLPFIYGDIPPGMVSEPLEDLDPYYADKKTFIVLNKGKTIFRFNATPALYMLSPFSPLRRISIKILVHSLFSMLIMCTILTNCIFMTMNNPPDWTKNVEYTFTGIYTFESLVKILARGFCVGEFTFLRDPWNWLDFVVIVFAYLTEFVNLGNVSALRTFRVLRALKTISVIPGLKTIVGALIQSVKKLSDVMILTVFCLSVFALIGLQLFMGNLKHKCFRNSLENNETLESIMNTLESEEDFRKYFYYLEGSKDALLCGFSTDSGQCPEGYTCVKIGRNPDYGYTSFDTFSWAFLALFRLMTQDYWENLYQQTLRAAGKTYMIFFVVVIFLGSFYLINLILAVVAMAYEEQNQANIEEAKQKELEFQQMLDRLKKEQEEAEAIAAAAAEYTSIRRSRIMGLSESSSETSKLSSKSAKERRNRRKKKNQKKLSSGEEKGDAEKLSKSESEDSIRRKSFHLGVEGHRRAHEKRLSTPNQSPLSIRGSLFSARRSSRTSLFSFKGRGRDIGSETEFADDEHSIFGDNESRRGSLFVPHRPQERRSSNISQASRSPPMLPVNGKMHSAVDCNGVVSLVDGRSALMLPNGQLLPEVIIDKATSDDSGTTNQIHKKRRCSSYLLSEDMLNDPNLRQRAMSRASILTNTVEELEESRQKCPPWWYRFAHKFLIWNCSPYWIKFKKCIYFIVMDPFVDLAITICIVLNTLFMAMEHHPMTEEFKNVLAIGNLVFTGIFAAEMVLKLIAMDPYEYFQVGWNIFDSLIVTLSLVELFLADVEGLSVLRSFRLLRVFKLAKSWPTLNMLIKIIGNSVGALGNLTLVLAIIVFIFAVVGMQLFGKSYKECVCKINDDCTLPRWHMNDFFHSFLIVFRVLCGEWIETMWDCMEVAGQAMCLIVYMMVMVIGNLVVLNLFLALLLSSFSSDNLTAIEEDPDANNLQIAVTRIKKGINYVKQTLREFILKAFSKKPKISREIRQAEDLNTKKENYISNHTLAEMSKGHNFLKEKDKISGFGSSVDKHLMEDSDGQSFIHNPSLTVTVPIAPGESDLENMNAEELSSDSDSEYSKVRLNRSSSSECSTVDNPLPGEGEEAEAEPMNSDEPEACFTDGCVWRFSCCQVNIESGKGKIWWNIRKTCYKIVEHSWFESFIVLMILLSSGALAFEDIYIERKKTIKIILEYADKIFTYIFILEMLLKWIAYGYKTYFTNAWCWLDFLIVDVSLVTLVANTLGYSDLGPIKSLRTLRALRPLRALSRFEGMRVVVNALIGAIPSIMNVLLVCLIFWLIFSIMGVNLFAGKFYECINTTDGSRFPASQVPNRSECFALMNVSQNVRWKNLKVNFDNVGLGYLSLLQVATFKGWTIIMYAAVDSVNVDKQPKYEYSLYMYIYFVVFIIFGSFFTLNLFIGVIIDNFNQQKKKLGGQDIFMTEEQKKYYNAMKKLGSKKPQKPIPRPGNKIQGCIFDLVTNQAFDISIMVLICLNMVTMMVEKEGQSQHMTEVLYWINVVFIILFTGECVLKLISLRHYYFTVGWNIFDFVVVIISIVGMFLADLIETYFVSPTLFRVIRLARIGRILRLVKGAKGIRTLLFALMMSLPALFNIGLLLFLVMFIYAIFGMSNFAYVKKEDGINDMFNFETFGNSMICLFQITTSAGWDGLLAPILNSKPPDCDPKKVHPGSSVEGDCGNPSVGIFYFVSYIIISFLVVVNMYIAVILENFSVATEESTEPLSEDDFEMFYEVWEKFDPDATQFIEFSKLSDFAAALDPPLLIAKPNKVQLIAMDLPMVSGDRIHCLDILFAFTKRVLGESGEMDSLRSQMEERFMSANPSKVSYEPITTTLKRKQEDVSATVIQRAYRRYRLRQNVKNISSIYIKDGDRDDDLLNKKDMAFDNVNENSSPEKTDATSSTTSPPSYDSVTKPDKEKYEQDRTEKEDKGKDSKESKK
Method in brief: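 Tetracycline-induced HEK293 cells, whole-cell Qube recording at 22 degrees; compounds dissolved in internal solution (CsF-based, pH 7.3), exchanged after baseline. Held at −100 mV, 10 ms pulses to −20 mV at 5 Hz for 10 min; remaining current (last 3 points) vs baseline, rundown-corrected with no-drug cells; Hill-fit IC50.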

NaV1.7 [2] = biological target: T1, NaV1.7; assay: Automated patch clamp (Qube 384), external block of NaV1.7; format: cell-based; conditions: IC50, compound in external solution, HEK293 cells, read-out: Nav1.7 Extracellular Inhibition
Method in brief: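 Tetracycline-induced HEK293 cells, whole-cell patch at 22 degrees, held at −100 mV; 10 ms pulses to −20 mV at 5 Hz with leak subtraction. Compound applied in external solution (pH 7.4), then 10 min recording. Control-corrected, Hill-fitted IC50.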

[3] = PAMPA membrane permeability assay; format: in vitro ADME; conditions: permeability coefficient, pH 7.4 buffer, GIT lipid, 4 hours incubation
Method in brief: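 Passive diffusion across a GIT-lipid-painted artificial membrane at pH 7.4, with a 50 uM donor stock diluted from DMSO and a 4 h incubation. UV spectra of the donor, acceptor and reference plates were read, and the permeability coefficient was calculated from the AUCs, in 10^−6 cm/s.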

Structure (SMILES) | IC50 (NaV1.7 [1]) [µM] | IC50 (NaV1.7 [2]) [µM] | PAMPA (10^−6 cm/s) [3]
Cc1cccc(C)c1NC(=O)C[N+]1(Cc2ccccc2)CCCC(C(N)=O)C1.[Br-] (mixture of isomers) [Compound 53A, 1-benzyl-3-carbamoyl-1-(2-((2,6-dimethylphenyl)amino)-2-oxoethyl) piperidin-1-ium bromide] | 0.3 to 1 | > 10 | + (“+” (<0.1 10^−6 cm/s))
Cc1cccc(C)c1C(=O)OCC[N+]1(Cc2ccccc2)CCCCCC1.[Br-] [Compound 82A, 1-benzyl-1-(2-((2,6-dimethylbenzoyl)oxy)ethyl) azepan-1-ium bromide] | 0.3 to 1 | 3 to 10 | + (“+” (<0.1 10^−6 cm/s))
CCOC(=O)C1CCC[N+](CC(=O)Nc2c(C)cccc2C)(Cc2ccccc2)C1.[Br-] (stereo not drawn) [Compound 45A, 1-benzyl-1-(2-((2,6-dimethylphenyl)amino)-2-oxoethyl)-3-(ethoxycarbonyl) piperidin-1-ium bromide] | 0.3 to 1 | > 10 | + (“+” (<0.1 10^−6 cm/s))
COC(=O)C1CC[N+](CC(=O)Nc2c(C)cccc2C)(Cc2ccccc2)CC1.[Br-] (stereo not drawn) [Compound 44A, 1-benzyl-1-(2-((2,6-dimethylphenyl)amino)-2-oxoethyl)-4-(methoxycarbonyl) piperidin-1-ium bromide] | < 0.3 | > 10 | + (“+” (<0.1 10^−6 cm/s))
CCN(CC)C(=O)C1CCC[N+](CC(=O)Nc2c(C)cccc2C)(Cc2ccccc2)C1 (stereo not drawn) [Compound 66A] | 1 to 3 | > 10 | + (“+” (<0.1 10^−6 cm/s))
CCCc1cccc(C)c1NC(=O)C[N+]1(Cc2ccccc2)CCCCCC1.[Br-] [Compound 75A] | 1 to 3 | 3 to 10 | + (“+” (<0.1 10^−6 cm/s))
Cc1cccc(C)c1N1CCC([N+]2(Cc3ccccc3)CCCCC2)C1=O.[Br-] (stereo not drawn) [Compound 89A, 1-benzyl-1-(1-(2,6-dimethylphenyl)-2-oxopyrrolidin-3-yl)piperidin-1-ium bromide] | 1 to 3 | > 10 | ++ (“++” (0.1-2.0 10^−6 cm/s))
COC(=O)c1cccc(C[N+]2(CC(=O)Nc3c(C)cccc3C)CCCCC2)c1.[Br-] [Compound 35A, 1-(2-((2,6-dimethylphenyl)amino)-2-oxoethyl)-1-(3-(methoxycarbonyl)benzyl) piperidin-1-ium bromide] | 1 to 3 | > 10 | + (“+” (<0.1 10^−6 cm/s))
CC[N+](CC)(CCCc1ccccc1)CC(=O)Nc1c(C)cccc1C.[Br-] [Compound 86A, N-(2-((2,6-dimethylphenyl)amino)-2-oxoethyl)-N, N-diethyl-3-phenylpropan-1-aminium bromide] | 1 to 3 | > 10 | + (“+” (<0.1 10^−6 cm/s))
CCCOC(=O)C1CCC[N+](CC(=O)Nc2c(C)cccc2C)(Cc2ccccc2)C1.[Br-] (stereo not drawn) [Compound 47A, 1-benzyl-1-(2-((2,6-dimethylphenyl)amino)-2-oxoethyl)-3-(propoxycarbonyl) piperidin-1-ium bromide] | 1 to 3 | 1 to 3 | + (“+” (<0.1 10^−6 cm/s))
Cc1cccc(C)c1NC(=O)C[N+]1(Cc2ccccc2)CCCC(C(=O)N2CCCC2)C1 (stereo not drawn) [Compound 62A] | 0.3 to 1 | > 10 | + (“+” (<0.1 10^−6 cm/s))
Cc1cccc(C)c1N1CCC([N+]2(Cc3ccccc3)CCCCCCC2)C1=O.[Br-] (stereo not drawn) [Compound 90A] | 0.3 to 1 | 3 to 10 | + (“+” (<0.1 10^−6 cm/s))
